Legend:
Test in all cases: Test D controlled growth environment herbicide test, pre- and postemergence
Format in all cases: in vivo
[1] = system: Russian thistle (Salsola kali)
In short: (§1)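 Species sown in silt loam and sprayed preemergence, or grown in peat-based medium to 2–18 cm (1- to 4-leaf stage) and sprayed postemergence, with compounds in non-phytotoxic solvent plus surfactant. Visual injury scored versus controls after 14–21 d in a controlled environment, 0 (no effect) to 100 (complete control).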

[2] = system: chamomile (scentless chamomile, Matricaria inodora)
In short: as §1

[3] = system: bromegrass, downy (downy bromegrass, Bromus tectorum)
In short: as §1

[4] = system: chickweed (common chickweed, Stellaria media)
In short: as §1

[5] = system: blackgrass (Alopecurus myosuroides)
In short: as §1

[6] = system: radish, wild (wild radish, Raphanus raphanistrum)
In short: as §1

[7] = system: ryegrass, Italian (Italian ryegrass, Lolium multiflorum)
In short: as §1

[8] = system: windgrass (Apera spica-venti)
In short: as §1

[9] = system: deadnettle (henbit deadnettle, Lamium amplexicaule)
In short: as §1

[10] = system: field violet (Viola arvensis)
In short: as §1

[11] = system: kochia (Kochia scoparia)
In short: as §1

[12] = system: wheat, winter (winter wheat, Triticum aestivum)
In short: as §1

[13] = system: lambsquarters (Chenopodium album)
In short: as §1

[14] = system: speedwell (bird's-eye speedwell, Veronica persica)
In short: as §1

[15] = Postemergence, 31 g ai/ha, scale 0 to 100 (0 no effect, 100 complete control)
[16] = Postemergence, 125 g ai/ha, visual rating on scale 0 (no effect) to 100 (complete control), 14 to 21 d
[17] = Postemergence, 250 g ai/ha, scale 0 to 100 (0 no effect, 100 complete control)
[18] = Preemergence, 62 g ai/ha, scale 0 to 100 (0 no effect, 100 complete control)
[19] = Preemergence, 125 g ai/ha, scale 0 to 100 (0 no effect, 100 complete control)
[20] = Preemergence, 250 g ai/ha, scale 0 to 100, 0 no effect, 100 complete control
[21] = postemergence, 62 g ai/ha, scale 0 to 100, 0 no effect, 100 complete control

Structure (SMILES): Cc1nn(C)c(=O)c(-c2ccc(Br)c3ccccc23)c1O [Compound 75]
- Russian Thistle plant response rating [1, 15]: 80
- Plant response rating, Russian Thistle [1, 16]: 85
- Plant response rating, Russian Thistle [1, 17]: 85
- Plant response rating (scale of 0 to 100), Russian Thistle ([1]; Preemergence, 31 g ai/ha): 0
- Plant response rating, Russian Thistle [1, 18]: 0
- Plant response rating, Russian Thistle [1, 19]: 25
- Plant response rating, Russian Thistle [1, 20]: 35
- Plant response rating, Russian Thistle [1, 21]: 80
- Chamomile plant response rating [2, 15]: 80
- Plant response rating, Chamomile [2, 16]: 85
- Plant response rating, Chamomile [2, 17]: 100
- Plant response rating, Chamomile [2, 21]: 90
- Bromegrass, Downy plant response rating [3, 15]: 0
- Plant response rating, Bromegrass, Downy [3, 16]: 15
- Plant response rating, Bromegrass, Downy [3, 17]: 30
- Plant response rating (scale of 0 to 100), Bromegrass, Downy ([3]; Preemergence, 31 g ai/ha): 0
- Plant response rating, Bromegrass, Downy [3, 18]: 0
- Plant response rating, Bromegrass, Downy [3, 19]: 10
- Plant response rating, Bromegrass, Downy [3, 20]: 25
- Plant response rating, Bromegrass, Downy [3, 21]: 0
- Chickweed plant response rating [4, 15]: 100
- Plant response rating, Chickweed [4, 16]: 100
- Plant response rating, Chickweed [4, 17]: 100
- Plant response rating (scale of 0 to 100), Chickweed ([4]; Preemergence, 31 g ai/ha): 90
- Plant response rating, Chickweed [4, 18]: 100
- Plant response rating, Chickweed [4, 19]: 95
- Plant response rating, Chickweed [4, 20]: 100
- Plant response rating, Chickweed [4, 21]: 100
- Blackgrass plant response rating [5, 15]: 15
- Plant response rating, Blackgrass [5, 16]: 65
- Plant response rating, Blackgrass [5, 17]: 70
- Plant response rating (scale of 0 to 100), Blackgrass ([5]; Preemergence, 31 g ai/ha): 15
- Plant response rating, Blackgrass [5, 18]: 30
- Plant response rating, Blackgrass [5, 19]: 40
- Plant response rating, Blackgrass [5, 20]: 55
- Plant response rating, Blackgrass [5, 21]: 20
- Radish, Wild plant response rating [6, 15]: 95
- Plant response rating, Radish, Wild [6, 16]: 100
- Plant response rating, Radish, Wild [6, 17]: 100
- Plant response rating (scale of 0 to 100), Radish, Wild ([6]; Preemergence, 31 g ai/ha): 40
- Plant response rating, Radish, Wild [6, 18]: 70
- Plant response rating, Radish, Wild [6, 19]: 100
- Plant response rating, Radish, Wild [6, 20]: 100
- Plant response rating, Radish, Wild [6, 21]: 100
- Ryegrass, Italian plant response rating [7, 15]: 90
- Plant response rating, Ryegrass, Italian [7, 16]: 95
- Plant response rating, Ryegrass, Italian [7, 17]: 98
- Plant response rating (scale of 0 to 100), Ryegrass, Italian ([7]; Preemergence, 31 g ai/ha): 95
- Plant response rating, Ryegrass, Italian [7, 18]: 100
- Plant response rating, Ryegrass, Italian [7, 19]: 100
- Plant response rating, Ryegrass, Italian [7, 20]: 0
- Plant response rating, Ryegrass, Italian [7, 21]: 95
- Windgrass plant response rating [8, 15]: 10
- Plant response rating, Windgrass [8, 16]: 40
- Plant response rating, Windgrass [8, 17]: 65
- Plant response rating (scale of 0 to 100), Windgrass ([8]; Preemergence, 31 g ai/ha): 0
- Plant response rating, Windgrass [8, 18]: 15
- Plant response rating, Windgrass [8, 19]: 50
- Plant response rating, Windgrass [8, 20]: 85
- Plant response rating, Windgrass [8, 21]: 15
- Deadnettle plant response rating [9, 15]: 75
- Plant response rating, Deadnettle [9, 16]: 95
- Plant response rating, Deadnettle [9, 17]: 100
- Plant response rating (scale of 0 to 100), Deadnettle ([9]; Preemergence, 31 g ai/ha): 30
- Plant response rating, Deadnettle [9, 18]: 55
- Plant response rating, Deadnettle [9, 19]: 90
- Plant response rating, Deadnettle [9, 20]: 100
- Plant response rating, Deadnettle [9, 21]: 90
- Field Violet plant response rating [10, 15]: 95
- Plant response rating, Field Violet [10, 16]: 95
- Plant response rating, Field Violet [10, 17]: 100
- Plant response rating (scale of 0 to 100), Field Violet ([10]; Preemergence, 31 g ai/ha): 95
- Plant response rating, Field Violet [10, 18]: 100
- Plant response rating, Field Violet [10, 19]: 100
- Plant response rating, Field Violet [10, 20]: 100
- Plant response rating, Field Violet [10, 21]: 100
- Kochia plant response rating [11, 15]: 95
- Plant response rating, Kochia [11, 16]: 100
- Plant response rating, Kochia [11, 17]: 100
- Plant response rating (scale of 0 to 100), Kochia ([11]; Preemergence, 31 g ai/ha): 65
- Plant response rating, Kochia [11, 18]: 80
- Plant response rating, Kochia [11, 19]: 80
- Plant response rating, Kochia [11, 20]: 100
- Plant response rating, Kochia [11, 21]: 100
- Wheat, Winter plant response rating [12, 15]: 0
- Plant response rating, Wheat, Winter [12, 16]: 0
- Plant response rating, Wheat, Winter [12, 17]: 0
- Plant response rating (scale of 0 to 100), Wheat, Winter ([12]; Preemergence, 31 g ai/ha): 0
- Plant response rating, Wheat, Winter [12, 18]: 0
- Plant response rating, Wheat, Winter [12, 19]: 20
- Plant response rating, Wheat, Winter [12, 20]: 15
- Plant response rating, Wheat, Winter [12, 21]: 0
- Lambsquarters plant response rating [13, 15]: 100
- Plant response rating, Lambsquarters [13, 16]: 100
- Plant response rating, Lambsquarters [13, 17]: 100
- Plant response rating (scale of 0 to 100), Lambsquarters ([13]; Preemergence, 31 g ai/ha): 95
- Plant response rating, Lambsquarters [13, 18]: 95
- Plant response rating, Lambsquarters [13, 19]: 100
- Plant response rating, Lambsquarters [13, 20]: 100
- Plant response rating, Lambsquarters [13, 21]: 100
- Speedwell plant response rating [14, 15]: 80
- Plant response rating, Speedwell [14, 16]: 100
- Plant response rating, Speedwell [14, 17]: 100
- Plant response rating (scale of 0 to 100), Speedwell ([14]; Preemergence, 31 g ai/ha): 95
- Plant response rating, Speedwell [14, 18]: 100
- Plant response rating, Speedwell [14, 19]: 100
- Plant response rating, Speedwell [14, 20]: 100
- Plant response rating, Speedwell [14, 21]: 100

From patent US10597388B2, “Pyridazinone herbicides” (FMC CORPORATION, priority 2014, dated 2020)
